Assay results as given in ChEMBL document CHEMBL3860042, “Nucleoside Phosphate and Phosphonate Prodrug Clinical Candidates” (J Med Chem, 2016).

Assays:
[1] = system: Ebolavirus; assay: Antiviral activity against Ebolavirus assessed as reduction in viral replication; format: functional; conditions: Orthoebolavirus
[2] = system: Ebolavirus; assay: Antiviral activity against Ebolavirus infected in rhesus monkey assessed as protection against viral disease administered intravenously as once daily regimen; format: functional
[3] = Half life in rhesus monkey at 10 mg/kg, iv; format: ADME, organism-based, Macaca mulatta; conditions: in vivo
[4] = Drug metabolism in PBMC (unknown origin) assessed as half life for active triphosphate formation; format: ADME, cell-based
[5] = system: Ebolavirus; assay: Antiviral activity against Ebolavirus infected in PBMC (unknown origin) assessed as reduction in viral replication after 24 hrs; format: functional
[6] = Half life in human at 0.025 mg/kg dosed as single and multiple doses; format: ADME, organism-based; conditions: in vivo
[7] = Half life in human at 1.5 mg/kg dosed as single and multiple doses; format: ADME, organism-based; conditions: in vivo
[8] = Tmax in human at 0.025 to 2 mg/kg dosed as single and multiple doses; format: ADME, organism-based; conditions: in vivo
[9] = Toxicity in patients with solid malignancies assessed as incidence of thrombocytopenia; conditions: human, in vivo
[10] = Toxicity in patients with solid malignancies assessed as incidence of transaminitis; conditions: human, in vivo
[11] = Toxicity in patients with solid malignancies assessed as incidence of anemia; conditions: human, in vivo
[12] = organism: Mus musculus; assay: Toxicity in mouse assessed as body weight loss; format: organism-based; conditions: in vivo
[13] = Toxicity in patients with solid malignancies assessed as incidence of fatigue; conditions: human, in vivo

`CCC(CC)OC(=O)[C@H](C)N[P@@](=O)(OC[C@H]1O[C@@](C#N)(c2ccc3c(N)ncnn23)[C@H](O)[C@@H]1O)Oc1ccccc1` showed an EC50 [1] of 60 to 140 nM, an Activity [2] of 100% and a half-life [3] of 0.39 h. For the same compound, the t1/2 [4] was 14 h and the “inhibition (INH)” value [5] was >50%.
Work on `CCCCCCCCCCCCCCCCOCCCOP(=O)(O)CO[C@H](CO)Cn1ccc(N)nc1=O` [BRINCIDOFOVIR] yielded a half-life [6] of 6.15 h, a half-life [7] of 32.7 h and a Tmax [8] of 7 to 15 h.
`C[C@H](NP(=O)(OC[C@H]1O[C@@H](n2ccc(N)nc2=O)C(F)(F)[C@@H]1O)Oc1ccccc1)C(=O)OCc1ccccc1` (some centres undefined) [FOSGEMCITABINE PALABENAMIDE] gave an Activity [9] of 53%, an Activity [10] of 64% and an Activity [11] of 67%. The Activity [12] was < 2% and the Activity [13] was 67%.
In the case of `N#C[C@@]1(c2ccc3c(N)ncnn23)O[C@H](CO)[C@@H](O)[C@H]1O` [GS-441524], the EC50 [1] is reported as 770 to 20000 nM.
